Earlier results on 1 molecule are cited in US10071072B2, “Method for treating neurotrauma” (N.V. Nutricia, priority 2011, dated 2018).

This series concerns neurotrauma. Conditions: in vivo supply; King et al. J. Neurosci.

Molecules are shown by their SMILES.

Take `CC/C=C\C/C=C\C/C=C\CCCCCCCC(=O)O` [α-linolenic acid]: the neuroprotection in neurotrauma result is reported as “neuroprotective”.
